Measurements published in ChEMBL document CHEMBL4715921, “Novel Quinazolinyl Compounds as Endoribonuclease Inositol Requiring Enzyme 1 (IRE 1α) Inhibitors for Treating Cancer” (ACS Med Chem Lett, 2021).

Assay: Inhibition of His-tagged IRE1alpha D688N mutant KR domain (G547 to L997 reidues) (unknown origin) expressed in Sf9 insect cells measured after 1 hr by TR-FRET assay
Parameters: species or system Homo sapiens

| Compound | IC50 [nM] |
| --- | --- |
| O=S(=O)(Cc1ccccc1)Nc1c(F)cc(-c2ccc3nc(N[C@H]4CCCNC4)ncc3c2)cc1F | 0.53 |
| O=S(=O)(Cc1ccccc1)Nc1ccc(-c2ccc3nc(N[C@H]4CCCNC4)ncc3c2)c(F)c1F | 0.57 |
| O=S(=O)(Cc1ccccc1)Nc1c(F)cc(-c2ccc3nc(N[C@@H]4CNC[C@@H](F)C4)ncc3c2)cc1F | 0.51 |
| CCc1cc(-c2ccc(NS(=O)(=O)CCC(F)(F)F)c(F)c2)cc2cnc(N[C@H]3CC[C@H](N(C)C)CC3)nc12 | 0.25 |
| CCc1cc(-c2ccc(NS(=O)(=O)Cc3ccccc3)cc2F)cc2cnc(N[C@@H]3CNC[C@@H](F)C3)nc12 | 0.46 |
| CCc1cc(-c2ccc(NS(=O)(=O)Cc3ccccc3)c(F)c2)cc2cnc(N[C@@H]3CNC[C@@H](F)C3)nc12 | 0.18 |
